Data taken from the Kinase Knowledgebase extract (Sharma et al. 2016).
pIC50: −log10 of the molar value.

Each molecule was assayed against CDK2 (UniProt P24941) (assay: Enzyme Assay). Settings: not given.

pIC50	Compound
> 5.46	COc1cc[nH]c1/C=C1\C(=O)Nc2ccc3[nH]c(-c4ccccc4)nc3c21
> 5.46	Cc1nc[nH]c1/C=C1\C(=O)Nc2ccc([N+](=O)[O-])c(N=[N+]=[N-])c21
> 5.46	COc1cc[nH]c1/C=C1\C(=O)Nc2ccc3nc[nH]c3c21
> 5.46	COc1cc[nH]c1/C=C1\C(=O)Nc2ccc3[nH]c(NC(C)c4ccccc4)nc3c21 (configuration not stated)
> 5.46	COc1cc[nH]c1/C=C1\C(=O)Nc2ccc3[nH]c(C)nc3c21
> 5.46	O=C1Nc2ccc3[nH]c(-c4ccccc4)nc3c2/C1=C/c1ccc[nH]1
> 5.46	Cc1nc[nH]c1/C=C1\C(=O)Nc2ccc([N+](=O)[O-])c(N)c21
> 5.46	COc1cc[nH]c1/C=C1\C(=O)Nc2ccc3[nH]c(-c4ccccc4O)nc3c21
> 5.46	COc1ccc(Cc2nc3c4c(ccc3[nH]2)NC(=O)/C4=C\c2[nH]ccc2OC)cc1
> 5.46	Cc1nc[nH]c1/C=C1\C(=O)Nc2ccc(N)c(N)c21
> 5.46	COc1cc[nH]c1/C=C1\C(=O)Nc2ccc3[nH]c(CCc4ccc(O)cc4)nc3c21
> 5.46	COc1cc[nH]c1/C=C1\C(=O)Nc2ccc3[nH]c(CCCc4ccccc4)nc3c21
> 5.46	COc1cc[nH]c1/C=C1\C(=O)Nc2ccc3[nH]c(C(O)c4ccccc4)nc3c21 (configuration not stated)
> 5.46	Cc1nc[nH]c1/C=C1\C(=O)Nc2ccc([N+](=O)[O-])c(F)c21
> 5.46	COc1cc[nH]c1/C=C1\C(=O)Nc2ccc3[nH]c(NCC4CCCO4)nc3c21 (configuration not stated)
> 5.46	COc1cc[nH]c1/C=C1\C(=O)Nc2ccc3[nH]c(Nc4ccc(N(C)C)cc4)nc3c21
> 5.46	COCCCNc1nc2c3c(ccc2[nH]1)NC(=O)/C3=C\c1[nH]ccc1OC

Continued, molecule first:

Compound	pIC50
Cc1nc[nH]c1/C=C1\C(=O)Nc2ccc3[nH]cnc3c21	> 5.46
COc1cc[nH]c1/C=C1\C(=O)Nc2ccc3[nH]c(-c4ccc(C(=O)O)cc4)nc3c21	> 5.46

Same assay, conditions: concentration not given here

Compound	inhibition [%]
COc1cc[nH]c1/C=C1\C(=O)Nc2ccc3nc(NCc4cccc5ccccc45)[nH]c3c21	< 50
COc1ccc(Nc2nc3c4c(ccc3[nH]2)NC(=O)/C4=C\c2[nH]ccc2OC)cc1	< 50
COc1cc[nH]c1/C=C1\C(=O)Nc2ccc3nc(NCCCc4ccccc4)[nH]c3c21	< 50
COc1cc[nH]c1/C=C1\C(=O)Nc2ccc3nc(NCc4ccc5c(c4)OCO5)[nH]c3c21	< 50
COc1cc[nH]c1/C=C1\C(=O)Nc2ccc3nc(Nc4ccc5c(c4)CCC5)[nH]c3c21	< 50
COc1ccc(Nc2nc3c4c(ccc3[nH]2)NC(=O)/C4=C\c2[nH]ccc2OC)cc1OC	< 50
COc1ccccc1Nc1nc2c3c(ccc2[nH]1)NC(=O)/C3=C\c1[nH]ccc1OC	< 50
COc1ccc(CCNc2nc3c4c(ccc3[nH]2)NC(=O)/C4=C\c2[nH]ccc2OC)cc1OC	< 50
COc1cc[nH]c1/C=C1\C(=O)Nc2ccc3[nH]c(NCCCCc4ccccc4)nc3c21	< 50
COc1cc[nH]c1/C=C1\C(=O)Nc2ccc3[nH]c(Nc4cccc(C(C)=O)c4)nc3c21	< 50
COC(=O)c1ccc(Nc2nc3c4c(ccc3[nH]2)NC(=O)/C4=C\c2[nH]ccc2OC)cc1	< 50
CCOC(=O)c1ccc(Nc2nc3c4c(ccc3[nH]2)NC(=O)/C4=C\c2[nH]ccc2OC)cc1	< 50

What follows are molecules tested against CDK2 (human) (UniProt P24941) (assay: Cell-Based Assay). Settings: sw480.

pIC50	Compound
> 6.00	COc1cc[nH]c1/C=C1\C(=O)Nc2ccc3[nH]c(C)nc3c21
